Earlier results on 5 molecules are cited in patent US20260115111A1, “METHOD FOR IMPROVING THE TACTILE SENSATION OF DYED KERATINOUS MATERIAL, ESPECIALLY HUMAN HAIR” (Henkel AG & Co. KGaA, priority 2019, published 2026).

The conditions of the data set: 25° C.

`O=C([O-])C1=NN(c2ccc(S(=O)(=O)[O-])cc2)C(=O)C1N=Nc1ccc(S(=O)(=O)[O-])cc1.[Na+].[Na+].[Na+]` (centres unmarked) [Acid Yellow 23, trisodium salt of 4,5-dihydro-5-oxo-1-(4-sulfophenyl)-4-((4-sulfophenyl)azo)-1H-pyrazole-3-carboxylic acid]: the “solubility in water” value was “highly soluble”.
For the molecule `O=C([O-])c1c(Cl)c(Cl)c(Cl)c(Cl)c1-c1c2c(Br)cc(=O)c(Br)c-2oc2c(Br)c(O)cc(Br)c12.O=C([O-])c1c(Cl)c(Cl)c(Cl)c(Cl)c1-c1c2c(Br)cc(=O)c(Br)c-2oc2c(Br)c(O)cc(Br)c12.[Na+].[Na+]` [Acid Red 92, disodium salt of 3,4,5,6-tetrachloro-2-(1,4,5,8-tetrabromo-6-hydroxy-3-oxoxanthen-9-yl)benzoic acid], the solubility in water entry is “greater than 10 g/L”.
On to `CCN(Cc1cccc(S(=O)(=O)[O-])c1)c1ccc(C(=C2C=CC(=[N+](CC)Cc3cccc(S(=O)(=O)[O-])c3)C=C2)c2ccccc2S(=O)(=O)[O-])cc1.[Na+].[Na+]` [Acid Blue 9], for which the solubility in water result is “more than 20 wt. %”.
As for `O=S(=O)([O-])c1ccc(N=Nc2c(O)ccc3ccccc23)cc1.[Na+]` [Acid Orange 7, sodium salt of 4-[(2-hydroxy-1-naphthyl)azo]benzene sulphonate], the solubility in water result is listed as “more than 7 g/L”.
As for `Nc1cc(S(=O)(=O)[O-])cc2cc(S(=O)(=O)[O-])c(N=Nc3ccccc3)c(O)c12.[Na+].[Na+]` [Acid Red 33, diantrium salt of 5-amino-4-hydroxy-3-(phenylazo)-naphthalene-2,7-disulphonate], the solubility in water is 2500 µg/mL.
